Like-named read-outs stand apart in the source and are kept apart here.
Legend:
ALK = ALK (Homo sapiens, UniProt Q9UM73); assay: ALK kinase IC50 test (HTRF); format: biochemical
Description: According to HTRF method, the peptide substrate was labeled with a biotin, which can specifically bind to XL665-labeled streptavidin. When the kinase adds a phosphate group to the polypeptide substrate in the first step, its Eu-labeled specific phosphorylation antibody can recognize and bind to it. In this way, in the second step of detection, a complex of XL665-labeled streptavidin, phosphorylated peptide substrate and Eu-labeled phosphorylation antibody can be formed. Since the distance between XL665 and Eu is short, FRET can be formed. On the other hand, Eu has a relatively long fluorescence half-life and can be applied to time-resolved fluorescence detection.
10 μL of reaction system, 4 μL test compound, 2 μL kinase, 2 μL biotin-labeled substrate and 2 μL ATP, was added into a 384-well plate, shaken for 30 s, and incubated at room temperature for 1 hour. 5 μL of Eu-labeled phosphorylation site-specific antibody and 5 μL of XL665-labeled streptavidin were added. The reaction system was shaken for 30 s, and incubated at room temperature for 1 hour. A microplate reader was used to detect the fluorescence signal. The inhibition rates of the compounds under 8 concentration gradients were determined, and the IC50 value of each compound was calculated by fitting curve with Origin 8.0. […] Each experiment was performed in triplicate.
(§1) NOTE: HEL, SET-2, H3122 cells were purchased from ATCC (American type culture collection), Z′-LYTETM kinase assay platform was purchased from Invitrogen, HTRF KinEASETM-TK was purchased from Cisbio, and Cell Counting Kit-8 was purchased from Beyotime.

H3122 cells = assay: CCK-8 cell proliferation detection, H3122 cells; format: cell-based
Description: (§2) WST-8 (chemical name: 2-(2-methoxy-4-nitrophenyl)-3-(4-nitrophenyl)-5-(2,4-disulfo benzene)-2H-tetrazolium monosodium), which is reduced to a highly water-soluble yellow formazan product (Formazan dye) by the dehydrogenase in cells under the action of the electron carrier dimethyl 1-methoxy-5-methylphenazinium sulfate (1-Methoxy PMS). The amount of the produced formazan is proportional to the number of living cells. Therefore, the survival rate of cells can be calculated indirectly by measuring the absorbance at 450 nm. The half inhibition rate of the compound on the proliferation of H3122, SET2, HEL cells can be determined by the CCK-8 method.
(§3) RPIM medium containing 10% FBS was used to culture cells (100 μL per well), and 3500 cells were inoculated into a 96-well plate, and placed in a 37° C., 5% CO2 incubator for 24 h, until 50%-70% of the cell confluence was achieved. Drugs with different concentration gradients were added respectively, and incubated for another 72 hrs. […] And finally the absorption value of each well was measured at 450 nm.
as §1

SET 2 (JAK2 V617F) cells = assay: CCK-8 cell proliferation detection, SET2 cells; format: cell-based; conditions: Homo sapiens, Table 2, CCK-8, 72 hrs
Description: as §2, §3, §1

HEL (JAK2 V617F) cells = assay: CCK-8 cell proliferation detection, HEL cells; format: cell-based; conditions: Homo sapiens, Table 2, CCK-8, 72 hrs
Description: as §2, §3, §1

JAK2 = JAK2 (Homo sapiens, UniProt O60674); assay: JAK2 kinase activity test at molecular level (Z'-LYTE FRET); format: biochemical
Method: JAK2 can catalyze the transfer of a phosphate group of adenosine triphosphate (ATP) to a polypeptide substrate, and the polypeptide substrate is labeled with two fluorescent groups, coumarin and fluorescein. […] Therefore, the inhibition rates of different compounds can be calculated by measuring the ratio of enzyme-catalyzed substrate phosphorylation percentages.
10 μL reaction system, 2.5 μL test compound, 5 μL kinase/peptide substrate mixture and 2.5 μL ATP solution were added into a 384-well plate, shaken for 30 s, and incubated at room temperature for 1 hour. 5 μL of proteolytic enzyme and 15 μL of the reaction system were added and shaken for 30 s and incubated at room temperature for 1 h. 5 μL of stop reagent was added, and the reaction system with a total volume of 20 μL was shaken for 30 seconds. A microplate reader was used to detect the fluorescence signal. […] The inhibition rates of the compound at 7 concentration gradients were determined, and the IC50 value for each compound was calculated by fitting curve with Origin 8.0.
as §1

[1] = Table 4, configurations of MXY-193
[2] = Homo sapiens, NCI-H3122, Table 4, configurations of MXY-193
[3] = Homo sapiens, NCI-H3122, 72 h, Table 2, CCK-8, 72 hrs
[4] = Homo sapiens, NCI-H3122, Table 2, CCK-8, 72 hrs

Sequence of JAK2 (O60674 whole entry): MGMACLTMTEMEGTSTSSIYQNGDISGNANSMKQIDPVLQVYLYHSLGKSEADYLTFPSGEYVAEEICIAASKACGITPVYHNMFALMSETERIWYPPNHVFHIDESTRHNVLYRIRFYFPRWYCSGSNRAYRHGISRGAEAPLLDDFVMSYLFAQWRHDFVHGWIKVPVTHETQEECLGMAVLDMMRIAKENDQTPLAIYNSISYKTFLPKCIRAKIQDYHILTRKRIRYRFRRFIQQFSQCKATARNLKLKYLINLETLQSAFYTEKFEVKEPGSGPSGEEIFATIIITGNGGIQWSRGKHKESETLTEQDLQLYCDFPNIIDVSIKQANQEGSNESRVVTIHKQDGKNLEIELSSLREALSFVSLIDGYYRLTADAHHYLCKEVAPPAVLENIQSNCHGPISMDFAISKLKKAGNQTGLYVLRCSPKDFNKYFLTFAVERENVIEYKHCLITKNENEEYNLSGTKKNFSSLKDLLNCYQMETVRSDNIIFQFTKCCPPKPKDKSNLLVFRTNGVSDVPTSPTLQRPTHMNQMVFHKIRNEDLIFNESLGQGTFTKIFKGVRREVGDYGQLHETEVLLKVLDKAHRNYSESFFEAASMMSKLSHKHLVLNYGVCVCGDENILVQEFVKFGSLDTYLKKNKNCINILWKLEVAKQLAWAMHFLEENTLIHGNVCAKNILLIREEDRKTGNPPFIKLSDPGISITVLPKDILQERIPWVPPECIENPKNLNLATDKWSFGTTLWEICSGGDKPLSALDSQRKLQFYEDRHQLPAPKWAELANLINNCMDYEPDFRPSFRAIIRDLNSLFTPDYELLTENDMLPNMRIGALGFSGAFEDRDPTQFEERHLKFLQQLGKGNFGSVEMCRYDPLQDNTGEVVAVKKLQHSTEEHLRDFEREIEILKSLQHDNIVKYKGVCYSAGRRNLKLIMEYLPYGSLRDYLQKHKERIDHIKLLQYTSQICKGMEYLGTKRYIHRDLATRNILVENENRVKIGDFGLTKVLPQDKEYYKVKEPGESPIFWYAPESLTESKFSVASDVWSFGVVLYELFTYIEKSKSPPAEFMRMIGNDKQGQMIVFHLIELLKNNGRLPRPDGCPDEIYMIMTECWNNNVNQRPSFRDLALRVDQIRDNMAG
Sequence of ALK (Q9UM73 19-1620, species assumed): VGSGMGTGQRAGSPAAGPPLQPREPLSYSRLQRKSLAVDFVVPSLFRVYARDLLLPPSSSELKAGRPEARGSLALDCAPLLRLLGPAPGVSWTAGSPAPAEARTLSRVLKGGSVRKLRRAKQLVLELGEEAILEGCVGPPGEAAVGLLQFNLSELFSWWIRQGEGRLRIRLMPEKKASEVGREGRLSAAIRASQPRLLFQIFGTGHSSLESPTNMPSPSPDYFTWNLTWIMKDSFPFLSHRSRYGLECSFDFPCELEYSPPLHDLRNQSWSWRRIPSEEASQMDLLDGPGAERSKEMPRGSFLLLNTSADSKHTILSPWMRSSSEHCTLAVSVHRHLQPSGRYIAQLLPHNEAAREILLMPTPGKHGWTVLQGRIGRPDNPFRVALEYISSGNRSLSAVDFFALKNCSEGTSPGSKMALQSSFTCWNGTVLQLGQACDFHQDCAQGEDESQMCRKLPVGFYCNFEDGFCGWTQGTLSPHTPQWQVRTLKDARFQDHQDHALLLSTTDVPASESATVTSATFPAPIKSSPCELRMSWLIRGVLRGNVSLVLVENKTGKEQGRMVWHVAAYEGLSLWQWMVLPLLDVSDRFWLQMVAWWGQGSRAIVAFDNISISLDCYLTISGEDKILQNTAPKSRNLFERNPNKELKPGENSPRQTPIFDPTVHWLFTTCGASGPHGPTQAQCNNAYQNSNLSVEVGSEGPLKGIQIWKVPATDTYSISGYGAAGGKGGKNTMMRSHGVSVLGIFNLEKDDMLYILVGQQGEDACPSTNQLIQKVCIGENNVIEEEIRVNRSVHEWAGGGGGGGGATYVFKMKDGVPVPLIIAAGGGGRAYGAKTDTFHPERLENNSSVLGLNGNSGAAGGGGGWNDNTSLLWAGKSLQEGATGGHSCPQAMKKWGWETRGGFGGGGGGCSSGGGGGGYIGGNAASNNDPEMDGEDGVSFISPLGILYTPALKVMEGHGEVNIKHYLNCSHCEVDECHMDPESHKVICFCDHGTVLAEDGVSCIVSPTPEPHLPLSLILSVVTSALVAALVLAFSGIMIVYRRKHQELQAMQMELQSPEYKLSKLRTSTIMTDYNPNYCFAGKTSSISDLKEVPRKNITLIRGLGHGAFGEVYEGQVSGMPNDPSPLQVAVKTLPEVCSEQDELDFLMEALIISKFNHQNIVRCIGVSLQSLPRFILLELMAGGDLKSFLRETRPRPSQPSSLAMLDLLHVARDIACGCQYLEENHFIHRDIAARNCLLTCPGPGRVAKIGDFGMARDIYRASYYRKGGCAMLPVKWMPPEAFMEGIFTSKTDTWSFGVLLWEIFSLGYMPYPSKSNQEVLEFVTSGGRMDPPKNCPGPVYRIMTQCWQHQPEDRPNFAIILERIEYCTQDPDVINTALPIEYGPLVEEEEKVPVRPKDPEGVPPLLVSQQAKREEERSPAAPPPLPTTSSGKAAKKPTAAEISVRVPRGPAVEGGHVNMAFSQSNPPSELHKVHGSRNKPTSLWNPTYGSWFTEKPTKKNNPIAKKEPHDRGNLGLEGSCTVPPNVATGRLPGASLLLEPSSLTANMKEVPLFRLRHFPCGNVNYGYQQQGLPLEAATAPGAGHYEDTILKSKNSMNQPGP

SMILES	IC50 (ALK; [1])	IC50 (H3122 cells; [2])	IC50 (H3122 cells; [1])	IC50 (SET 2 (JAK2 V617F) cells; SET-2, 72 h)	IC50 (HEL (JAK2 V617F) cells; 72 h)	IC50 (H3122 cells; [3])	IC50 (SET 2 (JAK2 V617F) cells; SET-2)	IC50 (JAK2; Table 2, read-out: JAK2 IC50)	IC50 (ALK; Table 2)	IC50 (HEL (JAK2 V617F) cells)	IC50 (H3122 cells; [4])	IC50 (JAK2; Table 1, read-out: JAK2 kinase activity IC50)
CC(Oc1cc(-c2cnn(C3CCOCC3)c2)cnc1N)c1cc(F)ccc1Cl (single isomer, unassigned) [Configuration 1]	6.5 µM	56.7 µM										
CC(Oc1cc(-c2cnn(C3CCOCC3)c2)cnc1N)c1cc(F)ccc1Cl (single isomer, unassigned) [Configuration 2]	> 10 µM		> 100 µM									
C[C@@H](Oc1cc(-c2cnn(C3CCNCC3)c2)cnc1N)c1c(Cl)ccc(F)c1Cl [Crizotinib, reference compound]				0.47 µM	7.3 µM	0.842 ± 0.056 µM						
CC(Oc1cc(-c2cncnc2)cnc1N)c1cc(F)ccc1Cl (stereo not drawn) [MXY-032-45]							> 10 µM	0.566 ± 0.029 µM	3.67 µM	> 10 µM	> 100 µM	
CC(Oc1cc(-c2cnn(C3COC3)c2)cnc1N)c1cc(F)ccc1Cl (stereo not drawn) [MXY-032-51]							31.2 µM	0.025 ± 0.001 µM	0.335 µM	4.67 µM	9.91 ± 1.28 µM	
CC(Oc1cc(-c2cnn(C3CCOC3)c2)cnc1N)c1cc(F)ccc1Cl (stereo not drawn) [MXY-032-53]							44.1 µM	0.027 ± 0.001 µM	1.24 µM	4.54 µM	6.34 ± 1.91 µM	
CC(Oc1cc(-c2cccc(N3CCOCC3)c2)cnc1N)c1cc(F)ccc1Cl (stereo not drawn) [MXY-032-55]							18.6 µM	0.528 ± 0.008 µM	3.89 µM	5.99 µM	11.6 ± 6.02 µM	
CC(Oc1cc(Nc2cc3ccccc3cn2)cnc1N)c1cc(F)ccc1Cl (stereo not drawn) [MXY-032-69]							> 50 µM	> 5 µM	> 10 µM	10.7 µM	25.3 ± 6.24 µM	
CC(Oc1cc(Nc2ccc3ccccc3n2)cnc1N)c1cc(F)ccc1Cl (stereo not drawn) [MXY-032-85]							> 50 µM	> 10 µM	> 10 µM	5.74 µM	12 ± 2.32 µM	
CC(Oc1cc(Nc2nccc3ccccc23)cnc1N)c1cc(F)ccc1Cl (stereo not drawn) [MXY-032-87]							> 50 µM	> 10 µM	> 10 µM	9.47 µM	17.4 ± 0.25 µM	
CCOC(C)n1cc(-c2cnc(N)c(OC(C)c3cc(F)ccc3Cl)c2)cn1 (stereo not drawn) [MXY-032-91]							6.34 µM	0.157 ± 0.031 µM	5.28 µM	4.56 µM	2.08 ± 0.803 µM	
COCCCn1cc(-c2cnc(N)c(OC(C)c3cc(F)ccc3Cl)c2)cn1 (stereo not drawn) [MXY-032-93]							2.88 µM	0.015 ± 0.001 µM	2.33 µM	3.45 µM	1.98 ± 0.84 µM	
COCCn1cc(-c2cnc(N)c(OC(C)c3cc(F)ccc3Cl)c2)cn1 (stereo not drawn) [MXY-032-95]							3.9 µM	0.011 ± 0.001 µM	2.36 µM	2.34 µM	1.36 ± 0.869 µM	
CC(Oc1cc(-c2cn(C)c3ccccc23)cnc1N)c1cc(F)ccc1Cl (stereo not drawn) [MXY-89]							11 µM	0.695 ± 0.002 µM	7.89 µM	2.44 µM	6.874 ± 0.022 µM	
CC(Oc1cc(-c2cnn3ccccc23)cnc1N)c1cc(F)ccc1Cl (stereo not drawn) [MXY-97]							4.51 µM	0.061 ± 0.007 µM	1.23 µM	1.85 µM	3.3 ± 0.05 µM	
COc1ncc(F)cc1C(C)Oc1cc(-c2cnn(C3CCNCC3)c2)cnc1N (stereo not drawn) [MXY-111]							2.48 µM		0.132 µM	12.4 µM	0.988 ± 0.047 µM	
CC(Oc1cc(-c2c[nH]c3ccccc23)cnc1N)c1cc(F)ccc1Cl (stereo not drawn) [MXY-137]							12.5 µM	0.925 ± 0.102 µM	5.5 µM	1.67 µM	50.6 ± 8.01 µM	
CC(Oc1cc(-c2cc3ccccc3[nH]2)cnc1N)c1cc(F)ccc1Cl (stereo not drawn) [MXY-141]							13.2 µM		> 10 µM	12.2 µM	> 100 µM	
CC(Oc1cc(Nc2ccccc2)cnc1N)c1cc(F)ccc1Cl (stereo not drawn) [MXY-171]							2.14 µM	3.35 ± 0.063 µM	> 10 µM	2.11 µM	17.57 ± 0.161 µM	
CC(Oc1cc(Nc2ccccn2)cnc1N)c1cc(F)ccc1Cl (stereo not drawn) [MXY-175]							11 µM	1.1 ± 0.081 µM	> 10 µM	2.23 µM	> 100 µM	
CC(Oc1cc(-c2cnn3cccnc23)cnc1N)c1cc(F)ccc1Cl (stereo not drawn) [MXY-181]							> 50 µM	0.145 ± 0.01 µM	2.34 µM	49 µM	62.5 ± 4.78 µM	
Cc1cc(Nc2cnc(N)c(OC(C)c3cc(F)ccc3Cl)c2)nn1C (stereo not drawn) [MXY-191]							> 50 µM	2.68 ± 0.05 µM	> 10 µM	23.1 µM	> 100 µM	
CC(Oc1cc(-c2cnn(C3CCOCC3)c2)cnc1N)c1cc(F)ccc1Cl (stereo not drawn) [MXY-193]	> 10 µM	78.8 ± 2.27 µM				78.8 ± 2.27 µM			> 10 µM			
N#CC[C@H](C1CCCC1)n1cc(-c2ncnc3[nH]ccc23)cn1 [Ruxolitinib, reference compound]											27.2 ± 3.39 µM	
CC(Oc1cc(-c2cnn(C3CCNCC3)c2)cnc1N)c1cc(F)ccc1Cl (stereo not drawn) [WWQ-131, 4-{3-[1-(2-chloro-5-fluorophenyl)ethoxy]-2-aminopyridine}pyrazol-1-piperidine]				1.33 µM	9.78 µM	1.591 ± 0.014 µM			0.089 µM			0.0067 ± 0.001 µM
CC(Oc1cc(-c2cnn(C3CCNCC3)c2)cnc1N)c1c(Cl)ccc(F)c1Cl (stereo not drawn) [WWQ-1093-65, 4-{3-[1-(2,6-dichloro-3-fluorophenyl)ethoxy]-2-aminopyridine}pyrazole-1-piperidine]				1.49 µM	11.7 µM	0.648 ± 0.044 µM						
CC(Oc1cc(-c2ccn[nH]2)cnc1N)c1cc(F)ccc1Cl (stereo not drawn) [XFL-141]							2.48 µM	0.3021 ± 0.003 µM		5.41 µM	78.6 ± 3 µM	

Source: patent US20210179598A1, “SELECTIVE JAK2 INHIBITOR AND APPLICATION THEREOF” (EAST CHINA UNIVERSITY OF SCIENCE AND TECHNOLOGY, priority 2018, published 2021)
